According to PubChem BioAssay (NCI):
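Five compound concentrations were applied to cells in 96-well plates for 48 hours; endpoints were derived by simple linear interpolation of the resulting dose-response curve. Here, GI50 denotes the concentration required for 50% inhibition of growth. TGI denotes the concentration required for complete inhibition of growth.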

How the values were obtained:
Experiment in all cases: NCI tumour cell line growth inhibition, 48 h
A498 renal = test system: A498 renal
A549 NSCLC = test system: A549 NSCLC
ACHN renal = test system: ACHN renal
BT-549 breast = test system: BT-549 breast
CAKI-1 renal = test system: CAKI-1 renal
CCRF-CEM leukemia = test system: CCRF-CEM leukemia
COLO 205 colon = test system: COLO 205 colon
DU-145 prostate = test system: DU-145 prostate
EKVX NSCLC = test system: EKVX NSCLC
HCC-2998 colon = test system: HCC-2998 colon
HOP-62 NSCLC = test system: HOP-62 NSCLC
HOP-92 NSCLC = test system: HOP-92 NSCLC
HS 578T breast = test system: HS 578T breast
HT29 colon = test system: HT29 colon
IGROV1 ovarian = test system: IGROV1 ovarian
K-562 leukemia = test system: K-562 leukemia
KM12 colon = test system: KM12 colon
LOX IMVI melanoma = test system: LOX IMVI melanoma
M14 melanoma = test system: M14 melanoma
MALME-3M melanoma = test system: MALME-3M melanoma
MCF7 breast = test system: MCF7 breast
MDA-MB-231 breast = test system: MDA-MB-231 breast
MDA-MB-435 = test system: MDA-MB-435
MOLT-4 leukemia = test system: MOLT-4 leukemia
NCI-H226 lung = test system: NCI-H226 lung
NCI-H23 lung = test system: NCI-H23 lung
NCI-H460 lung = test system: NCI-H460 lung
NCI-H522 lung = test system: NCI-H522 lung
NCI/ADR-RES ovarian = test system: NCI/ADR-RES ovarian
OVCAR-3 ovarian = test system: OVCAR-3 ovarian
OVCAR-4 ovarian = test system: OVCAR-4 ovarian
OVCAR-5 ovarian = test system: OVCAR-5 ovarian
OVCAR-8 ovarian = test system: OVCAR-8 ovarian
PC-3 prostate = test system: PC-3 prostate
RXF 393 renal = test system: RXF 393 renal
SF-268 CNS = test system: SF-268 CNS
SF-295 CNS = test system: SF-295 CNS
SF-539 CNS = test system: SF-539 CNS
SK-MEL-2 melanoma = test system: SK-MEL-2 melanoma
SK-MEL-28 melanoma = test system: SK-MEL-28 melanoma
SK-MEL-5 melanoma = test system: SK-MEL-5 melanoma
SK-OV-3 ovarian = test system: SK-OV-3 ovarian
SN12C renal = test system: SN12C renal
SNB-19 CNS = test system: SNB-19 CNS
SNB-75 CNS = test system: SNB-75 CNS
SW-620 colon = test system: SW-620 colon
T-47D breast = test system: T-47D breast
TK-10 renal = test system: TK-10 renal
UACC-257 melanoma = test system: UACC-257 melanoma
UACC-62 melanoma = test system: UACC-62 melanoma

O=C(/C=C/c1ccco1)c1ccc(Nc2ccnc3cc(Cl)ccc23)cc1
GI50 (A498 renal): 1.29 µM
TGI (A498 renal): > 100 µM
GI50 (A549 NSCLC): > 100 µM
TGI (A549 NSCLC): > 100 µM
GI50 (ACHN renal): > 100 µM
TGI (ACHN renal): > 100 µM
GI50 (BT-549 breast): > 100 µM
TGI (BT-549 breast): > 100 µM
GI50 (CAKI-1 renal): > 100 µM
TGI (CAKI-1 renal): > 100 µM
GI50 (CCRF-CEM leukemia): 6.56 µM
TGI (CCRF-CEM leukemia): > 100 µM
GI50 (COLO 205 colon): 39.2 µM
TGI (COLO 205 colon): > 100 µM
GI50 (DU-145 prostate): 9.33 µM
TGI (DU-145 prostate): > 100 µM
GI50 (EKVX NSCLC): > 100 µM
TGI (EKVX NSCLC): > 100 µM
GI50 (HCC-2998 colon): > 100 µM
TGI (HCC-2998 colon): > 100 µM
GI50 (HOP-62 NSCLC): > 100 µM
TGI (HOP-62 NSCLC): > 100 µM
GI50 (HOP-92 NSCLC): 15 µM
TGI (HOP-92 NSCLC): 62 µM
GI50 (HS 578T breast): > 100 µM
TGI (HS 578T breast): > 100 µM
GI50 (HT29 colon): 3.09 µM
TGI (HT29 colon): > 100 µM
GI50 (IGROV1 ovarian): 15.2 µM
TGI (IGROV1 ovarian): > 100 µM
GI50 (K-562 leukemia): 2.97 µM
TGI (K-562 leukemia): > 100 µM
GI50 (KM12 colon): 3.17 µM
TGI (KM12 colon): > 100 µM
GI50 (LOX IMVI melanoma): 6.41 µM
TGI (LOX IMVI melanoma): > 100 µM
GI50 (M14 melanoma): 70.7 µM
TGI (M14 melanoma): > 100 µM
GI50 (MALME-3M melanoma): > 100 µM
TGI (MALME-3M melanoma): > 100 µM
GI50 (MCF7 breast): 1.46 µM
TGI (MCF7 breast): 4.55 µM
GI50 (MDA-MB-231 breast): 12.8 µM
TGI (MDA-MB-231 breast): 34.7 µM
GI50 (MDA-MB-435): > 100 µM
TGI (MDA-MB-435): > 100 µM
GI50 (MOLT-4 leukemia): 3.18 µM
TGI (MOLT-4 leukemia): > 100 µM
GI50 (NCI-H226 lung): > 100 µM
TGI (NCI-H226 lung): > 100 µM
GI50 (NCI-H23 lung): > 100 µM
TGI (NCI-H23 lung): > 100 µM
GI50 (NCI-H460 lung): 2.13 µM
TGI (NCI-H460 lung): > 100 µM
GI50 (NCI-H522 lung): > 100 µM
TGI (NCI-H522 lung): > 100 µM
GI50 (NCI/ADR-RES ovarian): 75.8 µM
TGI (NCI/ADR-RES ovarian): > 100 µM
GI50 (OVCAR-3 ovarian): 4.73 µM
TGI (OVCAR-3 ovarian): > 100 µM
GI50 (OVCAR-4 ovarian): 39.9 µM
TGI (OVCAR-4 ovarian): > 100 µM
GI50 (OVCAR-5 ovarian): 52 µM
TGI (OVCAR-5 ovarian): > 100 µM
GI50 (OVCAR-8 ovarian): > 100 µM
TGI (OVCAR-8 ovarian): > 100 µM
GI50 (PC-3 prostate): 4.99 µM
TGI (PC-3 prostate): 41.3 µM
GI50 (RXF 393 renal): 20.9 µM
TGI (RXF 393 renal): > 100 µM
GI50 (SF-268 CNS): > 100 µM
TGI (SF-268 CNS): > 100 µM
GI50 (SF-295 CNS): > 100 µM
TGI (SF-295 CNS): > 100 µM
GI50 (SF-539 CNS): 15 µM
TGI (SF-539 CNS): > 100 µM
GI50 (SK-MEL-2 melanoma): 76.7 µM
TGI (SK-MEL-2 melanoma): > 100 µM
GI50 (SK-MEL-28 melanoma): 74.9 µM
TGI (SK-MEL-28 melanoma): > 100 µM
GI50 (SK-MEL-5 melanoma): 12 µM
TGI (SK-MEL-5 melanoma): > 100 µM
GI50 (SK-OV-3 ovarian): > 100 µM
TGI (SK-OV-3 ovarian): > 100 µM
GI50 (SN12C renal): > 100 µM
TGI (SN12C renal): > 100 µM
GI50 (SNB-19 CNS): > 100 µM
TGI (SNB-19 CNS): > 100 µM
GI50 (SNB-75 CNS): > 100 µM
TGI (SNB-75 CNS): > 100 µM
GI50 (SW-620 colon): 3.51 µM
TGI (SW-620 colon): > 100 µM
GI50 (T-47D breast): 82.2 µM
TGI (T-47D breast): > 100 µM
GI50 (TK-10 renal): > 100 µM
TGI (TK-10 renal): > 100 µM
GI50 (UACC-257 melanoma): 76 µM
TGI (UACC-257 melanoma): > 100 µM
GI50 (UACC-62 melanoma): > 100 µM
TGI (UACC-62 melanoma): > 100 µM
